These results are taken from US7795312B2, “Method for treating abdominal discomfort” (Sucampo AG, priority 2002, dated 2010).

Holding throughout (assay type): in vivo, human
Assay [1] has as its system patients with irritable bowel syndrome (IBS). In words: Abdominal discomfort score in patients with irritable bowel syndrome. The settings on record: for Abdominal discomfort score, Mean ± SD: IBS patients. On the procedure: (§1) Patients with irritable bowel syndrome (IBS) were randomly allocated to the following two treatment groups. • Group 1: Test substance (13,14-dihydro-15-keto-16,16-difluoro-PGE1) 48 μg total (24 μg/breakfast+24 μg/dinner) • Group 2: Matching placebo (placebo/breakfast+placebo/dinner)
Each group underwent two weeks washout period and then began to administer oral test substance (capsules) or placebo (capsules) daily for 4 weeks. Test substance or placebo was taken two times a day (b.i.d) at breakfast with food and at least 8 ounces of water and at dinner with food and at least 8 ounces of water. Patients were asked to evaluate abdominal discomfort upon waking in the morning, using a 5-point scale (Score: 0=absent, 1=mild, 2=moderate, 3=severe, 4=very severe) at 4 weeks after the initiation of the treatments.

In assay [2] the test system is patients with occasional constipation. In words: Abdominal discomfort score in patients with occasional constipation. The settings on record: for Abdominal discomfort score, Mean ± SD: patients with constipation, oral capsules 48 μg total daily (24 μg b.i.d.), 5-point scale 0-4, p < 0.05 vs placebo. The protocol: Patients with occasional constipation were randomly allocated to the following two treatment groups. • Group 1: Test substance (13,14-dihydro-15-keto-16,16-difluoro-PGE1) 48 μg total (24 μg/breakfast+24 μg/dinner) • Group 2: Matching placebo (placebo/breakfast+placebo/dinner) Each group underwent two weeks washout period and then began to administer oral test substance (capsules) or placebo (capsules) daily for 4 weeks. During the washout period, the patient's bowel habit was documented to confirm the existence of constipation. Constipation is defined as, on average, less than three spontaneous bowel movements per week. All existing laxative medication was withdrawn at the start of the washout period and the patients were instructed not to change their diet or lifestyle during the study.
Test substance or placebo was taken orally for a total treatment period of 4 weeks; it was taken two times a day (b.i.d) at breakfast with food and at least 8 ounces of water and at dinner with food and at least 8 ounces of water. […]

Assay [3] relates to patients with irritable bowel syndrome (IBS). In words: Abdominal bloating score in patients with irritable bowel syndrome. The settings on record: for Abdominal bloating score, Mean ± SD: IBS patients. On the procedure:
as §1
Each group underwent two weeks washout period and then began to administer oral test substance (capsules) or placebo (capsules) daily for 4 weeks. Test substance or placebo was taken two times a day (b.i.d) at breakfast with food and at least 8 ounces of water and at dinner with food and at least 8 ounces of water. The patients were asked to evaluate abdominal bloating upon waking in the morning, using a 5-point scale (Score: 0=absent, 1=mild, 2=moderate, 3=severe, 4=very severe) at 4 weeks after the initiation of the treatments.

For assay [4], the system named is patients with irritable bowel syndrome (IBS) exhibiting dyschezia. In words: Spontaneous bowel movement frequency in patients with IBS exhibiting dyschezia. The settings on record: for Spontaneous Bowel Movement Frequency Rates, Mean ± SD: IBS patients exhibiting dyschezia. On the procedure: Each group underwent two weeks washout period and then began to administer oral test substance (capsules) or placebo (capsules) daily for 4 weeks. Test substance or placebo was taken two times a day (b.i.d) at breakfast with food and at least 8 ounces of water and at dinner with food and at least 8 ounces of water. After 3 consecutive days of not having spontaneous bowel movement, the investigator could prescribe to the patient 10 mg bisacodyl suppository as a rescue medication. If this was not effective, Fleet® enema could be used. During the study period, each patient documented bowel activity. A spontaneous bowel movement was defined as any bowel movement except for that occurred within 24 hours after the rescue medication. Frequency of spontaneous bowel movements at Baseline, Weeks 1, 2, 3 and 4 were analyzed.

[5] abbreviates: Baseline, 5-point scale 0=absent to 4=very severe.
The mark [6] stands for this setting: Week 4, oral capsules 48 μg total daily (24 μg b.i.d.), 5-point scale 0-4, p < 0.01 vs placebo.
Setting [7] is: oral 48 μg total daily for 4 weeks.

For the compound `CCCCC(F)(F)C(=O)CCC1C(O)CC(=O)C1CCCCCCC(=O)O` (stereo not shown) [Test Substance, 13,14-dihydro-15-keto-16,16-difluoro-PGE1], the “Abdominal discomfort score, Mean ± SD” value is recorded as 2.25 ± 0.803 in assay [1] (setting [5]); 1.48 ± 1.029 in assay [1] (setting [6]); 1.09 ± 1.047 (116) in assay [2] (Week 2); 1.27 ± 1.057 (117) in assay [2] (Week 3); 1.22 ± 1.060 (117) in assay [2] (Week 4). In assay [1] (setting [7]), the “Effect on abdominal discomfort in patients with IBS” value is reported as “significantly improved the abdominal discomfort”. In addition, the “Effect on abdominal discomfort in patients with constipation” value in assay [2] (setting [7]) is recorded as “significantly improved the abdominal discomfort”. In addition, the “Abdominal bloating score, Mean ± SD” value in assay [3] (setting [5]) was 2.50 ± 0.916 (32); in assay [3] (setting [6]) it was 1.74 ± 0.999 (31). Moreover, the “Effect on abdominal bloating in patients with IBS” value in assay [3] (setting [7]) was “significantly improved the abdominal bloating”. Further, the “Spontaneous Bowel Movement Frequency Rates, Mean ± SD” value in assay [4] (Baseline) is 1.43 ± 0.773 (32); in assay [4] (Week 1, oral capsules 48 μg total daily (24 μg b.i.d.), p < 0.01 vs placebo), 6.50 ± 4.108 (32); in assay [4] (Week 2, oral capsules 48 μg total daily (24 μg b.i.d.), p < 0.01 vs placebo), 5.58 ± 4.003 (32); in assay [4] (Week 3, oral capsules 48 μg total daily (24 μg b.i.d.), p < 0.01 vs placebo), 5.93 ± 4.775 (32); in assay [4] (Week 4, oral capsules 48 μg total daily (24 μg b.i.d.), p < 0.05 vs placebo), 5.17 ± 4.333 (32). Besides, the “Effect on spontaneous bowel movement frequency in patients with IBS exhibiting dyschezia” value in assay [4] (setting [7]) is given as “significantly improved the spontaneous bowel movement frequency”.
